Source: patent US8114885B2, “Chemical compounds” (GlaxoSmithKline LLC, priority 2000, dated 2012)
Structures can show the parent of a compound that is named as a salt.

Test system: HUVEC
Assay: Human Umbilical Vein Endothelial Cell (HUVEC) proliferation assay (BrdU incorporation)
Assay type: cell-based
Details: VEGF-stimulated HUVEC, 72 hrs, read-out: Inhibition of HUVEC proliferation IC50
Description: Human Umbilical Vein Endothelial Cell (HUVEC) Proliferation Assay (BrdU Incorporation) Materials
HUVEC cells and EGM-MV (Endothelial cell growth medium—microvascular) were purchased from Clonetics (San Diego, Calif.). VEGF and bFGF were purchased from R&D Systems (Minneapolis, Minn.). Anti-BrdU antibody was obtained from Chemicon International (Temecula, Calif.).
HUVECs were routinely maintained in EGM-MV medium and were used within passage 7. HUVECs were plated at a density of 2500 cells/well in M199 medium containing 5% FBS (Hyclone) in type I collagen coated plate (Becton Dickinson). The plate was incubated at 37° C. overnight. The medium was removed by aspiration, and test compounds were added to each well in a volume of 0.1 ml/well in serum-free M199 medium. Compound concentrations ranged from 1.5 nM to 30 micromolar. The plate was incubated for 30 min at 37° C. Another 0.1 ml of serum-free M199 medium containing BSA and VEGF (or bFGF) was added to give a final concentration of 0.1% BSA and 10 ng/ml VEGF (0.3 ng/ml bFGF). The plate was incubated at 37° C. for 72 hrs. BrdU was added to each well after the first 48 hrs to give a concentration of 10 micromolar. The calorimetric ELISA assay was performed according to manufacturer's (Roche Molecular Sciences) instructions, with detection by absorbance reading at 450 nm. Results were plotted as concentration of test compound vs. absorbance to give an IC50 value for inhibition of BrdU incorporation.

First: Cc1nn(C)c2cc(N(C)c3ccnc(Nc4cccc(CS(C)(=O)=O)c4)n3)ccc12 [Example 38, N^4-(1,3-dimethyl-1H-indazol-6-yl)-N^4-methyl-N^2-{3-[(methylsulfonyl)methyl]phenyl}-2,4-pyrimidinediamine]
Second: Cc1n[nH]c2cc(N(C)c3ccnc(Nc4cccc(NS(C)(=O)=O)c4)n3)ccc12 [Example 27, N-[3-({4-[methyl(3-methyl-1H-indazol-6-yl)amino]-2-pyrimidinyl}amino)phenyl]methanesulfonamide]
The IC50 of the first is higher: 201 to 500 nM for the first, 1 to 200 nM for the second. The second is the more potent here.

Compared with `C#CCN(c1ccc2c(C)n[nH]c2c1)c1ccnc(Nc2cccc(S(N)(=O)=O)c2)n1` [Example 51, 3-({4-[(3-methyl-1H-indazol-6-yl)(2-propynyl)amino]-2-pyrimidinyl}amino)benzenesulfonamide], `Cc1n[nH]c2cc(N(C)c3ccnc(Nc4cccc(S(=O)(=O)NC(C)C)c4)n3)ccc12` [Example 24, N-isopropyl-3-({4-[methyl(3-methyl-1H-indazol-6-yl)amino]-2-pyrimidinyl}amino)benzenesulfonamide] is lower in IC50: 201 to 500 nM for the first, 1 to 200 nM for the second.

First: Cc1n[nH]c2cc(N(C)c3ccnc(Nc4cc(S(N)(=O)=O)ccc4Cl)n3)ccc12 [Example 62, 4-chloro-3-({4-[methyl(3-methyl-1H-indazol-6-yl)amino]-2-pyrimidinyl}amino)benzenesulfonamide]
Second: Cc1cc(S(N)(=O)=O)ccc1Nc1nccc(N(C)c2ccc3c(C)n[nH]c3c2)n1 [Example 63, 3-methyl-4-({4-[methyl(3-methyl-1H-indazol-6-yl)amino]-2-pyrimidinyl}amino)benzenesulfonamide]
The IC50 of the first is lower: 1 to 200 nM for the first, 201 to 500 nM for the second. The first is the more potent here.

Compared with `Cc1n[nH]c2cc(N(C)c3ccnc(Nc4cc(S(C)(=O)=O)ccc4F)n3)ccc12` [Example 67, N^2-[2-fluoro-5-(methylsulfonyl)phenyl]-N^4-methyl-N^4-(3-methyl-1H-indazol-6-yl)-2,4-pyrimidinediamine], `COc1ccc(S(C)(=O)=O)cc1Nc1nccc(N(C)c2ccc3c(C)n[nH]c3c2)n1` [Example 68, N^2-[2-methoxy-5-(methylsulfonyl)phenyl]-N^4-methyl-N^4-(3-methyl-1H-indazol-6-yl)-2,4-pyrimidinediamine] is lower in IC50: 201 to 500 nM for the first, 1 to 200 nM for the second.

`Cc1n[nH]c2cc(N(CC#N)c3ccnc(Nc4ccc(CS(C)(=O)=O)cc4)n3)ccc12` [Example 44, [(3-methyl-1H-indazol-6-yl)(2-{4-[(methylsulfonyl)methyl]anilino}-4-pyrimidinyl)amino]acetonitrile] and `CCS(=O)(=O)c1ccc(Nc2nccc(N(C)c3ccc4c(C)n[nH]c4c3)n2)cc1` [Example 57, N^2-[4-(ethylsulfonyl)phenyl]-N^4-methyl-N^4-(3-methyl-1H-indazol-6-yl)-2,4-pyrimidinediamine] fall in the same range of IC50: 201 to 500 nM for the first, 201 to 500 nM for the second.

First: Cc1n[nH]c2cc(Nc3ncnc(Nc4cccc(CS(C)(=O)=O)c4)n3)ccc12 [Example 15, N^2-(3-methyl-1H-indazol-6-yl)-N^4-{3-[(methylsulfonyl)methyl]phenyl}-1,3,5-triazine-2,4-diamine trifluoroacetate]
Second: CNS(=O)(=O)c1ccc(OC)c(Nc2nccc(N(C)c3ccc4c(C)n[nH]c4c3)n2)c1 [Example 47, 4-methoxy-N-methyl-3-({4-[methyl(3-methyl-1H-indazol-6-yl)amino]-2-pyrimidinyl}amino)benzenesulfonamide]
The IC50 of the first is higher: 501 to 1000 nM for the first, 201 to 500 nM for the second. The second is the more potent here.

First: COc1cc(S(N)(=O)=O)ccc1Nc1nccc(N(C)c2ccc3c(C)n[nH]c3c2)n1 [Example 49, 3-methoxy-4-({4-[methyl(3-methyl-1H-indazol-6-yl)amino]-2-pyrimidinyl}amino)benzenesulfonamide]
Second: CCS(=O)(=O)c1ccc(OC)c(Nc2ncc(F)c(N(C)c3ccc4c(C)n[nH]c4c3)n2)c1 [Example 1, N^2-[5-(ethylsulfonyl)-2-methoxyphenyl]-5-fluoro-N^4-methyl-N^4-(3-methyl-1H-indazol-6-yl)-2,4-pyrimidinediamine]
The IC50 of the first is lower: 1 to 200 nM for the first, 201 to 500 nM for the second.
